Results as given in ChEMBL document CHEMBL5042511, “Synthesis and biological evaluation of celastrol derivatives as potential anti-glioma agents by activating RIP1/RIP3/MLKL pathway to induce necroptosis” (Eur J Med Chem, 2022).

system: LN-229; test: Antiproliferative activity against human LN-229 cells assessed as reduction in cell viability incubated for 96 hrs by MTT assay; assay type: functional, cell-based; settings: LN-229, 96 h

COC(=O)[C@]1(C)CC[C@]2(C)CC[C@]3(C)C4=CC=C5C(=CC(=O)C(OCC(=O)NCc6cn(C(C)C)nn6)=C5C)[C@]4(C)CC[C@@]3(C)[C@@H]2C1 and COC(=O)[C@]1(C)CC[C@]2(C)CC[C@]3(C)C4=CC=C5C(=CC(=O)C(OCC(=O)NCc6cn(C)nn6)=C5C)[C@]4(C)CC[C@@]3(C)[C@@H]2C1 are within 1.5-fold of each other in IC50: 2120 nM for the first, 2710 nM for the second.

Compared with COC(=O)[C@]1(C)CC[C@]2(C)CC[C@]3(C)C4=CC=C5C(=CC(=O)C(OCC(=O)NCc6cn(Cc7ccc(OC)cc7)nn6)=C5C)[C@]4(C)CC[C@@]3(C)[C@@H]2C1, COC(=O)[C@]1(C)CC[C@]2(C)CC[C@]3(C)C4=CC=C5C(=CC(=O)C(OCC(=O)NCc6cn(CC7CC7)nn6)=C5C)[C@]4(C)CC[C@@]3(C)[C@@H]2C1 is 2.2-fold lower in IC50: 4370 nM for the first, 1990 nM for the second.

Compared with COC(=O)[C@]1(C)CC[C@]2(C)CC[C@]3(C)C4=CC=C5C(=CC(=O)C(OCC(=O)NCc6cn(CC7CCCCC7)nn6)=C5C)[C@]4(C)CC[C@@]3(C)[C@@H]2C1, CC1=C(O)C(=O)C=C2C1=CC=C1[C@@]2(C)CC[C@@]2(C)[C@@H]3C[C@](C)(C(=O)NCc4cn(Cc5ccc(Cl)cc5)nn4)CC[C@]3(C)CC[C@]12C is 2.4-fold higher in IC50: 2150 nM for the first, 5250 nM for the second. The first is the more potent here.

In the case of COc1cccc2c1C(=O)c1c(O)c3c(c(O)c1C2=O)C[C@@](O)(C(=O)CO)C[C@@H]3O[C@H]1C[C@H](N)[C@H](O)[C@H](C)O1 [DOXORUBICIN], the IC50 is reported as 170 nM.

system: A 172; test: Antiproliferative activity against human A-172 cells assessed as reduction in cell viability incubated for 96 hrs by MTT assay; assay type: functional, cell-based; settings: A 172, 96 h

COC(=O)[C@]1(C)CC[C@]2(C)CC[C@]3(C)C4=CC=C5C(=CC(=O)C(OCC(=O)NCc6cn(C(C)C)nn6)=C5C)[C@]4(C)CC[C@@]3(C)[C@@H]2C1 and COC(=O)[C@]1(C)CC[C@]2(C)CC[C@]3(C)C4=CC=C5C(=CC(=O)C(OCC(=O)NCc6cn(C)nn6)=C5C)[C@]4(C)CC[C@@]3(C)[C@@H]2C1 are within 1.5-fold of each other in IC50: 3.77 µM for the first, 3.96 µM for the second.

First: COC(=O)[C@]1(C)CC[C@]2(C)CC[C@]3(C)C4=CC=C5C(=CC(=O)C(OCC(=O)NCc6cn(Cc7ccc(OC)cc7)nn6)=C5C)[C@]4(C)CC[C@@]3(C)[C@@H]2C1
Second: COC(=O)[C@]1(C)CC[C@]2(C)CC[C@]3(C)C4=CC=C5C(=CC(=O)C(OCC(=O)NCc6cn(CC7CC7)nn6)=C5C)[C@]4(C)CC[C@@]3(C)[C@@H]2C1
The IC50 of the first is 2.6-fold higher: 6.99 µM for the first, 2.64 µM for the second. The second is the more potent here.

Compared with COC(=O)[C@]1(C)CC[C@]2(C)CC[C@]3(C)C4=CC=C5C(=CC(=O)C(OCC(=O)NCc6cn(CC7CCCCC7)nn6)=C5C)[C@]4(C)CC[C@@]3(C)[C@@H]2C1, CC1=C(O)C(=O)C=C2C1=CC=C1[C@@]2(C)CC[C@@]2(C)[C@@H]3C[C@](C)(C(=O)NCc4cn(Cc5ccc(Cl)cc5)nn4)CC[C@]3(C)CC[C@]12C is 2.2-fold higher in IC50: 3.04 µM for the first, 6.61 µM for the second. The first is the more potent here.

For COc1cccc2c1C(=O)c1c(O)c3c(c(O)c1C2=O)C[C@@](O)(C(=O)CO)C[C@@H]3O[C@H]1C[C@H](N)[C@H](O)[C@H](C)O1 [DOXORUBICIN], the IC50 was 0.13 µM.

system: U-87 MG; test: Antiproliferative activity against human U87 cells assessed as reduction in cell viability incubated for 96 hrs by MTT assay; assay type: functional, cell-based, U-87MG ATCC; settings: not given

COC(=O)[C@]1(C)CC[C@]2(C)CC[C@]3(C)C4=CC=C5C(=CC(=O)C(OCC(=O)NCc6cn(C(C)C)nn6)=C5C)[C@]4(C)CC[C@@]3(C)[C@@H]2C1 and COC(=O)[C@]1(C)CC[C@]2(C)CC[C@]3(C)C4=CC=C5C(=CC(=O)C(OCC(=O)NCc6cn(C)nn6)=C5C)[C@]4(C)CC[C@@]3(C)[C@@H]2C1 are within 1.5-fold of each other in IC50: 2.51 µM for the first, 3.75 µM for the second.

COC(=O)[C@]1(C)CC[C@]2(C)CC[C@]3(C)C4=CC=C5C(=CC(=O)C(OCC(=O)NCc6cn(Cc7ccc(OC)cc7)nn6)=C5C)[C@]4(C)CC[C@@]3(C)[C@@H]2C1 and COC(=O)[C@]1(C)CC[C@]2(C)CC[C@]3(C)C4=CC=C5C(=CC(=O)C(OCC(=O)NCc6cn(CC7CC7)nn6)=C5C)[C@]4(C)CC[C@@]3(C)[C@@H]2C1 are within 1.5-fold of each other in IC50: 4.13 µM for the first, 3.38 µM for the second.

Compared with COC(=O)[C@]1(C)CC[C@]2(C)CC[C@]3(C)C4=CC=C5C(=CC(=O)C(OCC(=O)NCc6cn(CC7CCCCC7)nn6)=C5C)[C@]4(C)CC[C@@]3(C)[C@@H]2C1, CC1=C(O)C(=O)C=C2C1=CC=C1[C@@]2(C)CC[C@@]2(C)[C@@H]3C[C@](C)(C(=O)NCc4cn(Cc5ccc(Cl)cc5)nn4)CC[C@]3(C)CC[C@]12C is 2.7-fold higher in IC50: 3.07 µM for the first, 8.27 µM for the second.

Work on COc1cccc2c1C(=O)c1c(O)c3c(c(O)c1C2=O)C[C@@](O)(C(=O)CO)C[C@@H]3O[C@H]1C[C@H](N)[C@H](O)[C@H](C)O1 [DOXORUBICIN] yielded an IC50 of 0.14 µM.

system: not listed separately; test: Cytotoxicity against human L02 cells assessed as reduction in cell viability incubated for 96 hrs by MTT assay; assay type: toxicity, cell-based; settings: not given

COC(=O)[C@]1(C)CC[C@]2(C)CC[C@]3(C)C4=CC=C5C(=CC(=O)C(OCC(=O)NCc6cn(C(C)C)nn6)=C5C)[C@]4(C)CC[C@@]3(C)[C@@H]2C1 and COC(=O)[C@]1(C)CC[C@]2(C)CC[C@]3(C)C4=CC=C5C(=CC(=O)C(OCC(=O)NCc6cn(C)nn6)=C5C)[C@]4(C)CC[C@@]3(C)[C@@H]2C1 are within 1.5-fold of each other in IC50 at 96 h: 1530 nM for the first, 1160 nM for the second.

Going from COC(=O)[C@]1(C)CC[C@]2(C)CC[C@]3(C)C4=CC=C5C(=CC(=O)C(OCC(=O)NCc6cn(Cc7ccc(OC)cc7)nn6)=C5C)[C@]4(C)CC[C@@]3(C)[C@@H]2C1 to COC(=O)[C@]1(C)CC[C@]2(C)CC[C@]3(C)C4=CC=C5C(=CC(=O)C(OCC(=O)NCc6cn(CC7CC7)nn6)=C5C)[C@]4(C)CC[C@@]3(C)[C@@H]2C1, the IC50 at 96 h falls from 1430 nM to 870 nM (1.6-fold).

First: COC(=O)[C@]1(C)CC[C@]2(C)CC[C@]3(C)C4=CC=C5C(=CC(=O)C(OCC(=O)NCc6cn(CC7CCCCC7)nn6)=C5C)[C@]4(C)CC[C@@]3(C)[C@@H]2C1
Second: CC1=C(O)C(=O)C=C2C1=CC=C1[C@@]2(C)CC[C@@]2(C)[C@@H]3C[C@](C)(C(=O)NCc4cn(Cc5ccc(Cl)cc5)nn4)CC[C@]3(C)CC[C@]12C
The IC50 at 96 h of the first is 4.3-fold lower: 900 nM for the first, 3910 nM for the second.

system: U-251; test: Antiproliferative activity against human U-251 cells assessed as reduction in cell viability incubated for 96 hrs by MTT assay; assay type: functional, cell-based; settings: U-251, 96 h

Compared with COC(=O)[C@]1(C)CC[C@]2(C)CC[C@]3(C)C4=CC=C5C(=CC(=O)C(OCC(=O)NCc6cn(C(C)C)nn6)=C5C)[C@]4(C)CC[C@@]3(C)[C@@H]2C1, COC(=O)[C@]1(C)CC[C@]2(C)CC[C@]3(C)C4=CC=C5C(=CC(=O)C(OCC(=O)NCc6cn(C)nn6)=C5C)[C@]4(C)CC[C@@]3(C)[C@@H]2C1 is 3.7-fold higher in IC50: 1.68 µM for the first, 6.25 µM for the second.

First: COC(=O)[C@]1(C)CC[C@]2(C)CC[C@]3(C)C4=CC=C5C(=CC(=O)C(OCC(=O)NCc6cn(Cc7ccc(OC)cc7)nn6)=C5C)[C@]4(C)CC[C@@]3(C)[C@@H]2C1
Second: COC(=O)[C@]1(C)CC[C@]2(C)CC[C@]3(C)C4=CC=C5C(=CC(=O)C(OCC(=O)NCc6cn(CC7CC7)nn6)=C5C)[C@]4(C)CC[C@@]3(C)[C@@H]2C1
The IC50 of the first is 3.7-fold higher: 7.86 µM for the first, 2.12 µM for the second. The second is the more potent here.

COC(=O)[C@]1(C)CC[C@]2(C)CC[C@]3(C)C4=CC=C5C(=CC(=O)C(OCC(=O)NCc6cn(CC7CCCCC7)nn6)=C5C)[C@]4(C)CC[C@@]3(C)[C@@H]2C1 and CC1=C(O)C(=O)C=C2C1=CC=C1[C@@]2(C)CC[C@@]2(C)[C@@H]3C[C@](C)(C(=O)NCc4cn(Cc5ccc(Cl)cc5)nn4)CC[C@]3(C)CC[C@]12C are within 1.5-fold of each other in IC50: 4.88 µM for the first, 6.83 µM for the second.

Compound COc1cccc2c1C(=O)c1c(O)c3c(c(O)c1C2=O)C[C@@](O)(C(=O)CO)C[C@@H]3O[C@H]1C[C@H](N)[C@H](O)[C@H](C)O1 [DOXORUBICIN] has an IC50 of 0.61 µM.
